These compounds were tested on colon cancer cell line SW-620 (assay: Drug sensitivity of colon cancer cell line SW-620 (NCI60 panel)). Conditions: SW-620 colon cancer cell line, in which DR6 does not appear to be expressed (Northern analysis).
Type: cell-based, human
Method: In order to identify genes involved in drug resistance, the expression various genes in drug resistant cancer cells was measured. The drug resistant cancer cell lines used were all members of the NCI60 panel of drug resistant cell lines. The cell lines in this panel are resistant to one or more chemotherapeutic compounds.

SMILES | sensitivity of the cell line to the drug
O=C(O)CCCc1ccc(N(CCCl)CCCl)cc1 [chlorambucil] | relatively sensitive
N.N.[Cl][Pt][Cl] [cisplatin] | relatively sensitive
CC[C@@]1(O)C(=O)OCc2c1cc1n(c2=O)Cc2cc3c(CN(C)C)c(O)ccc3nc2-1 [topotecan] | relatively sensitive
COc1cccc2c1C(=O)c1c(O)c3c(c(O)c1C2=O)C[C@@](O)(C(=O)CO)C[C@@H]3O[C@H]1C[C@H](N)[C@H](O)[C@H](C)O1 [doxorubicin] | relatively sensitive
COc1cc([C@@H]2c3cc4c(cc3[C@@H](O[C@@H]3O[C@@H]5CO[C@@H](C)O[C@H]5[C@H](O)[C@H]3O)[C@H]3COC(=O)[C@H]23)OCO4)cc(OC)c1O [etoposide] | relatively sensitive

From US6423494B1, “DR6 and uses thereof” (Millennium Pharmaceuticals, Inc., priority 1999, dated 2002)
